Source: patent US9675595B2, “Synergistic combinations of PI3K- and MEK-inhibitors” (Novartis AG, priority 2011, dated 2017)
pIC50: −log10 of the molar value. Like-named read-outs stand apart in the source and are kept apart here.

Columns and labels:
Type in all cases: cell-based
COLO-678 = test: Cell viability (CellTiterGlo, 72 h), Example 1; settings: Homo sapiens, single agent
Source text: (§1) The colorectal cancer cell lines SW1417, COLO 205, LS411N, HT-29, RKO, OUMS-23, SW620, LoVo, SW480, SW837, COLO-678, LS123-NCI—H747, HCT-15, HCT116, DLD-1, T84, SW948, LS180, GP2d, HuTu 80, CW-2, SW48, NCI—H716, C2Bbe1, SNU—C1 and KM12 are obtained from the American Type Culture Collection (ATCC) and maintained in their respective culture medium as specified by the provider. These colorectal cancer cell lines have the following mutation status:
(§2) For assessment of combination effects, cells are seeded into 384-well plates at 500 cells/well and incubated overnight. The contents of the compound master plates are pre-diluted with 1:200 (1 μL compound solution to 200 μL cell […] culture medium containing 10% fetal clf serum) before transferring 5 μL of this pre-dilution to the cell plates containing 20 μL cell culture medium, to achieve the targeted final compound concentrations as well as a vehicle (DMSO) concentration of 0.09%.
(§3) Effects of single agents as well as their checkerboard combinations on cell viability are assessed after 72 hours of incubation at 37° C./5% CO2 by quantification of cellular ATP levels (CellTiterGlo, Promega) using 25 μL reagent/well and n=2 repliate plates per condition. The number/viability of cells at the time of compound addition was likewise assessed and used to estimate the population doubling time of the particular cell line. Single agent IC50s are calculated using standard four-parametric curve fitting (SLFit, model 205). Potential synergistic interactions between compound combinations are assessed using the Excess Inhibition 2D matrix according to the Loewe additivity model and are reported as Synergy Score. In addition, compound combinations are assessed by combination index analysis derived from isobologram graphs at 50% inhibition, and are reported as best combination index (CI), which corresponds to the lowest value on the isobologram. All synergy calculations are performed using CHALICE software (Lehár et al, Nat Biotechnol. (July 2009), 27(4): […]).

DLD-1 = test: Cell viability (CellTiterGlo, 72 h), Example 1; settings: Homo sapiens, single agent
Source text: as §1, §2, §3

NCI-H747 = test: Cell viability (CellTiterGlo, 72 h), Example 1; settings: Homo sapiens, single agent
Source text: as §1, §2, §3

[1] = test system: CRC and NSCLC cell lines that carry KRAS mutations; test: Cell proliferation assay (CellTiter-Glo, 72 hrs), dose matrix, Example 2, all six cell lines; settings: in the combination dose matrix
Procedure: The cell lines used in this study were purchased from American Type Cell Collection, including non-small cell lung cancer cell lines NCI—H23 & NCI—H2122 (which carry both KRAS and LKB1 mutations), NCI—H358 (which carries KRAS mutation), NCI—H460 (which carries KRAS, LKB1 and PIK3CA mutations), and Colorectal Cancer cell line SW480 (which carries KRAS mutation), HCT-15 (which carries KRAS PIK3CA mutations). All the cell lines were cultured at 37° C. in a 5% CO2 incubator in RPMI 1640 (ATCC #30-2001) media complemented with 10% fetal bovine serum, 2 mmol/L glutamine and 1% sodium pyruvate.
Cell viability was determined by measuring cellular ATP content using the CellTiter-Glo® Luminescent Cell Viability Assay (Promega #G7573) according to manufacturer's protocol. Briefly, 500-900 cells/well were plated on clear-bottom 384-well black plates (Greiner#781091) in quadruplicates or duplicates with 30 ul/well growth media, cells were allowed to attach overnight and followed by 72 hrs of incubation with various concentration of drugs or drug combinations (10 ul/well), at the end of the drug treatment, 30 ul/well of the CellTiter-Glo regent were added to each well to lyse the cells, and luminescence signals were recorded on a Envision plate reader. […]

Compound	pIC50 (COLO-678; read-out: Cmpd. A IC50)	pIC50 (DLD-1; read-out: Cmpd. A IC50)	pIC50 (NCI-H747; read-out: Cmpd. A IC50)	doses at which synergistic regions are typically observed [1]	pIC50 (COLO-678; read-out: Cmpd. B IC50)	pIC50 (DLD-1; read-out: Cmpd. B IC50)	pIC50 (NCI-H747; read-out: Cmpd. B IC50)
Cc1nc(NC(=O)N2CCC[C@H]2C(N)=O)sc1-c1ccnc(C(C)(C)C(F)(F)F)c1 [COMPOUND A, (S)-pyrrolidine-1,2-dicarboxylic acid 2-amide 1-({4-methyl-5-[2-(2,2,2-trifluoro-1,1-dimethyl-ethyl)-pyridin-4-yl]-thiazol-2-yl}-amide)]	< 4.97	< 4.97	5.21	above 150 nM	–	–	–
Cn1cnc2c(F)c(Nc3ccc(Br)cc3F)c(C(=O)NOCCO)cc21 [COMPOUND B, 6-(4-bromo-2-fluorophenylamino)-7-fluoro-3-methyl-3H-benzoimidazole-5-carboxylic acid (2-hydroxyethoxy)-amide]	–	–	–	≥ 80 nM	5.77	< 5.57	6.82
